According to patent US10487088B2, “Tricyclic compound serving as immunomodulator” (Chia Tai Tianqing Pharmaceutical Group Co., Ltd., priority 2016, dated 2019):
Entries after “also recorded” stand apart in the source; their conditions may differ.

Key:
[1] = molecular target: IDO1 (Mus musculus, UniProt P28776); assay: In vivo pharmacodynamics of IDO1: Kyn level in lung and plasma of LPS-induced C57BL/6 mice
Experimental: Prior to the experiment, 60 mg/kg sodium pentobarbital was injected into the abdominal cavity of the animals for anesthetizing. […] LPS was dissolved in PBS, and the dose is 25 μg/20 μL per animal. As a control, another 6 mice were received the same volume of PBS through the nasal cavity. Subsequently, the animals were housed as usual, and their plasma were collected at 25 h, 26 h, and 30 h after LPS/PBS induction, and the lung samples were collected at 26 h and 30 h (3 animals per a time point) and determined the kynurenine (Kyn) level.
Group 1, 40% polyethylene glycol 400 (PEG400) aqueous solution orally as a solvent control;
Group 2, 50 mg/kg NLG919 orally, formulated in 40% PEG400 aqueous solution;
Plasma were collected at 1 h, 2 h, 4 h and 6 h after the end of the last administration, and lung samples were collected at 2 h and 6 h (3 to 5 animals per a time point) and determined the Kyn level by the LC/MS method.

[2] = molecular target: T1, IDO1 enzyme in Hela cells (Homo sapiens, UniProt P14902); assay: hIDO1 cytological activity assay (kynurenine in Hela cells by LC-MS); format: cell-based; conditions: Hela cells induced with 100 ng/mL recombinant human γ-interferon, 20 h, read-out: IC50 hIDO1 Cytoactive
T1 construct: recombinant human γ-interferon was added at a final concentration of 100 ng/mL to induce IDO1 expression; endogenous in cells; host or cells: Hela cells, induced with recombinant human γ-interferon
Experimental: The change of kynurenine in Hela cells was detected by the LC-MS method, and the IC50 value of the compound was used as an index, to evaluate the inhibitory effect of the compound on IDO1 enzyme.
A medium, trypsin and DPBS were pre-heated in a 37° C. water bath. The medium for cell culture was sucked out and washed with 10 mL of DPBS; then the pre-heated trypsin was added into the culture flask, and the flask was rotated to allow the trypsin to uniformly cover it, and then placed in a 37° C., 5% CO2 incubator and digested for 1-2 min; in each T150, cells were dispersed with 10-15 mL of medium, centrifuged at 800 rpm for 5 min, and then resuspended in 10 mL of medium; 1 mL of cell suspension was pipetted and the cells were counted with Vi-cell; Hela cells were diluted with medium to 5×10^5/mL, 80 μL of the solution was added to a 96-cell plate, and cultured at 37° C. for 5-6 h in a 5% CO2 incubator.
The compound was diluted to 1 mM in DMSO, and then diluted 3-fold in duplicate wells, with 9 gradients. 5 μL of the diluted solution of the compound in DMSO was added to the compound plate containing 95 μL of the medium, and mixed, followed by transferring 10 μL of the mixture to a cell plate.
10 μL of recombinant human γ-interferon was added at a final concentration of 100 ng/mL to induce IDO1 expression. The cells were incubated at 37° C. for 20 h in a 5% CO2 incubator. 4 μL of 5% (w/v) trichloroacetic acid was added thereto, mixed and incubated at 50° C. for 30 min. After centrifugation at 2400 rpm for 10 min, 40 μL of the supernatant was taken and placed in a 96-well V-bottom plate, and then a precipitant was added in the plate. After mixing, the mixture was centrifuged at 4000 rpm for 10 min. 100 μL of the supernatant was transferred to a new 96-well V-bottom plate. The content of kynurenine was determined by LC-MS.
The control wells having γ-interferon but no compound was set as 0% inhibition, and the control wells without Hela cell was set as 100% inhibition, and the IC50 value of the compound was calculated by analyzing the data with XLFit 5.

[3] = molecular target: T2, recombinant human IDO1 enzyme (Homo sapiens, UniProt P14902); assay: In vitro hIDO1 enzyme activity test (NFK Green fluorescence); format: biochemical; conditions: recombinant human IDO1, L-tryptophan substrate, pH 6.5
T2 construct: purchased NTRC NTRC-hlDO-10K
Outline: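 Recombinant human IDO1 diluted to 20 nM in pH 6.5 phosphate buffer with ascorbate, catalase and methylene blue, preincubated with compound 30 min at 23° C, then L-tryptophan added (400 μM solution) for 90 min. NFK Green developed 4 h at 37° C (Ex 400/Em 510 nm); IC50 from 10-point 3-fold series, no-enzyme wells as 100% inhibition.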

T1 sequence (P14902 whole entry): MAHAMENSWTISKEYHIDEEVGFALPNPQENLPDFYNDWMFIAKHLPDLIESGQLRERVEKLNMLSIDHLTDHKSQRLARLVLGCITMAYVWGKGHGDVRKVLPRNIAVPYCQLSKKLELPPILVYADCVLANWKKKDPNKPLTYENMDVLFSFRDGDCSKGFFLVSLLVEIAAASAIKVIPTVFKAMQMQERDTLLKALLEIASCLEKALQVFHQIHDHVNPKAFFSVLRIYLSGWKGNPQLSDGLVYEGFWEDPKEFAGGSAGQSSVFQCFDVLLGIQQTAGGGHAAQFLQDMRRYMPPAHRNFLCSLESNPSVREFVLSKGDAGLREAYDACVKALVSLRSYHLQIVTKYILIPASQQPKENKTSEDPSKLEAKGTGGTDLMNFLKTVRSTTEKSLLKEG
T2 sequence (P14902 whole entry): as above
IDO1, sequence (P28776 whole entry): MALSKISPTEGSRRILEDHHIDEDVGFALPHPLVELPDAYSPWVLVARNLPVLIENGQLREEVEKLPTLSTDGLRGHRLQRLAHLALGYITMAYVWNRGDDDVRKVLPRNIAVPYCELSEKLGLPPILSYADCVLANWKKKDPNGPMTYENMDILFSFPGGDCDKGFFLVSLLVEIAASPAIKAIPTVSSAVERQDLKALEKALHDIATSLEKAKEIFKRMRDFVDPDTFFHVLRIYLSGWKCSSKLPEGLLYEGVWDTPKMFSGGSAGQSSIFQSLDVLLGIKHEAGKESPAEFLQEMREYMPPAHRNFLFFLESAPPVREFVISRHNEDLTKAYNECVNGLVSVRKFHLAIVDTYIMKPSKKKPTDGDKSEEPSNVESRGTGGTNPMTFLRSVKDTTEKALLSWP

Row | Structure (SMILES) | in vivo activity of IDO1 / reduction of the Kyn level in lung and plasma ([1]; 50 mg/kg orally at 0, 12 h and 24 h after induction, plasma 1-6 h, lung 2 h and 6 h after last administration) | degree of Kyn level reduction in lung and plasma compared to NLG919 ([1]; 50 mg/kg orally, comparison with NLG919 at same dose, 50 mg/kg) | IC50 [2] [nM] | IC50 [3] [nM]
1 | OC(CC1c2sccc2-c2cncn21)C1CCCCC1 (single isomer, unassigned) [Example 7, cyclohexyl-2-(8H-thieno[3′,2′:3,4]pyrrolo[1,2-c]imidazol-8-yl)ethanol] | effectively inhibited in vivo activity of IDO1 and caused reduction of the Kyn level in lung and plasma | more significant than that of NLG919; also recorded: significantly reduced the Kyn level in lung and plasma | 5.08 | 7.22
2 | c1cc2c(s1)C(CCC1CCCCC1)n1cncc1-2 (single isomer, unassigned) [Example 10, 8-(2-cyclohexyl)-8H-thieno[3,4]pyrrolo[1,5-a]imidazole] |  |  | > 5000 | > 10000
3 | c1cc2c(s1)C(C1CCCCC1)n1cncc1-2 (single isomer, unassigned) [Example 14, 8-cyclohexyl-8H-thieno[3,4]pyrrolo[1,5-a]imidazole] |  |  | 220 | 65.9
4 | c1cc2c(s1)C(CC1CCCCC1)n1cncc1-2 (single isomer, unassigned) [Example 16, 8-(cyclohexylmethyl)-8H-thieno[3,4]pyrrolo[1,5-a]imidazole] |  |  | 911 | 71
5 | FC1(F)CCC(CCC2c3sccc3-c3cncn32)CC1 (single isomer, unassigned) [Example 22, 8-(2-(4,4-difluorocyclohexyl)ethyl)-8H-thieno[3′,2′:3,4]pyrrolo[1,2-c]imidazole] |  |  | 212 | 23.1
6 | O[C@@H](C[C@@H]1c2sccc2-c2cncn21)C1CCOCC1 (single isomer, unassigned) [Example 28] |  |  | > 5000 | > 10000
7 | O[C@@H](C[C@H]1c2sccc2-c2cncn21)C1CCOCC1 (single isomer, unassigned) [Example 29] |  |  | 117 | 51.6
8 | FC1(F)CCC([C@H]2c3sccc3-c3cncn32)CC1 (single isomer, unassigned) [Example 41] |  |  | 74.9 | 48
9 | OCC1(C2c3sccc3-c3cncn32)CCCCC1 (single isomer, unassigned) [Example 42, [1-(8H-thieno[3,4]pyrrolo[1,5-a]imidazol-8-yl)cyclohexyl]methanol] |  |  | 779 | 253
10 | OC1CCCCC1C1c2sccc2-c2cncn21 (single isomer, unassigned) [Example 53, 2-(8H-thieno[3,4]pyrrolo[1,5-a]imidazol-8-yl)cyclohexanol] |  |  | 377 | 161
11 | FC1(F)[C@@H]2C[C@@H](C3c4sccc4-c4cncn43)C[C@@H]21 (single isomer, unassigned) [Example 62, 8-[6,6-difluoro-3-bicyclo[3.1.0]cyclohexyl]-8H-thieno[3,4]pyrrolo[1,5-a]imidazole (trans)] |  |  | 446 | 199
12 | FC1(F)[C@@H]2C[C@@H](C3c4sccc4-c4cncn43)C[C@@H]21 (single isomer, unassigned) [Example 63, 8-[6,6-difluoro-3-bicyclo[3.1.0]cyclohexyl]-8H-thieno[3,4]pyrrolo[1,5-a]imidazole (trans)] |  |  | > 5000 | 8800
13 | c1cc2c(s1)C(C1CCCCCC1)n1cncc1-2 (single isomer, unassigned) [Example 72, 8-cycloheptyl-8H-thieno[3,4]pyrrolo[1,5-a]imidazole] |  |  | 223 | 99.9
14 | c1cc2c(s1)C(C1CCCCCC1)n1cncc1-2 (single isomer, unassigned) [Example 73, 8-cycloheptyl-8H-thieno[3,4]pyrrolo[1,5-a]imidazole] |  |  | > 5000 | > 10000
15 | FC1(F)C2CC(C3c4sccc4-c4cncn43)CC21 (single isomer, unassigned) [Example 77, 8-(6,6-difluoro-3-bicyclo[3.1.0]cyclohexyl)-8H-thieno[3,4]pyrrolo[1,5-a]imidazole (cis)] |  |  | 125 | 37
16 | OC1CCCCC1C1c2sccc2-c2cncn21 (single isomer, unassigned) [Example 85] |  |  | 159 | 27.2
17 | OC1CCC(C2c3sccc3-c3cncn32)CC1 (single isomer, unassigned) [Example 117, 4-(8H-thieno[3,4]pyrrolo[1,5-a]imidazol-8-yl)-cyclohexanol] |  |  | 891 | 215
18 | CC(C)(C(O)C1CCCCC1)C1c2sccc2-c2cncn21 (single isomer, unassigned) [Example 119, 1-cyclohexyl-2-methyl-2-(8H-thieno[3,4]pyrrolo[1,5-a]imidazol-8-yl)-propan-1-ol] |  |  | 1980 | 390
19 | OC(CC1c2ccsc2-c2cncn21)C1CCCCC1 (centres unmarked) [Example 4, 1-cyclohexyl-2-(4H-thieno[3,4]pyrrolo[1,5-a]imidazol-4-yl)ethanol] |  |  | 613 | 83.6
20 | FC1(CCC2c3sccc3-c3cncn32)CCCCC1 (centres unmarked) [Example 39, 8-(2-(1-fluorocyclohexyl)ethyl)-8H-thieno[3′,2′:3,4]pyrrolo[1,2-c]imidazole] |  |  | 90.5 | 46
21 | O[C@@H](C[C@H]1c2sccc2-c2cncn21)C1CCC(F)(F)CC1 [Example 46, (1S)-1-(4,4-difluorocyclohexyl)-2-((S)-8H-thieno[3,4]pyrrolo[1,5-a]imidazol-8-yl)ethanol] |  |  | 28 | 11.4
